According to US8487006B2, “Method of enhancing TGF-β signalling” (Auxagen, Inc., priority 2008, dated 2013):

Key:
Assay type in all cases: cell-based
[1] = test system: TGF-β1-stimulated Smad2 phosphorylation in Mv1Lu cells; assay: TGF-β1-stimulated Smad2 phosphorylation, quantitative Western blot (P-Smad2/Smad2); conditions: for time dependence of the effect on TGF-β1-stimulated Smad2 phosphorylation: 20 LM MDC, 40 μM monensin, 20 μM TFP, 100 pM TGF-β1, several time periods; for concentration dependence of the effect on TGF-β1-stimulated Smad2 phosphorylation: several concentrations of the inhibitors, 100 pM TGF-β1 for 30 min
Method: (A-I, K) Cells were pretreated with 10 mg/ml β-CD (A, K), 20 LM MDC (B), 40 μM monensin (C), 20 μM TFP (D) and 0.45 M sucrose (K) or several concentrations (as indicated) of β-CD (E), TFP (F), monensin (G), chloroquine (H), dynasore (I), at 37° C. for 1 h. The cells were then stimulated with vehicle only or […] TGF-β1 (A to I) or several concentrations (as indicated) of TGF-β1 (K). After several time periods, as indicated, at 37° C., cell lysates were analysed by 7.5% SDS PAGE followed by Western blot analysis using antibodies to P-Smad2 and Smad2 and chemiluminescence development (a or top) and quantitation by densitometry (b or bottom). The relative level of P-Smad2 was expressed as arbitrary units (A.U.) (A, B, C, D, K) (b). The relative level of P-Smad2 in cells treated with TGF-β alone was taken as 100% of control (E to I, bottom). The data shown is representative of 3 independent experiments. (J) Cells were pretreated with 10 mg/ml β-CD (c,d) at 37° C. for 1 h. The cells were then stimulated with vehicle only (a) or with 100 pM TGF-β (b,d). After 30 min at 37° C. the cells were fixed and subjected to indirect immunofluorescent staining using antibody to P-Smad2. The magnification is 200×. The data shown is representative of 3 independent experiments.
If TGF-β-induced signaling occurs in endosomes, as reported previously^6-15, inhibitors of clathrin-dependent endocytosis would be expected to attenuate TGF-β-stimulated signaling such as Smad2 phosphorylation and nuclear colocalization^4,5. To test this, Mv1Lu cells were pretreated with vehicle only or with clathrin-dependent endocytosis inhibitors at 37° C. for 30 min and then treated with or without 100 pM TGF-β1. After several time periods, the relative levels of P-Smad2 in treated and stimulated cells were analyzed by quantitative Western blot analysis using antibodies to P-Smad2 and Smad2. […] After stimulation of cells with TGF-β1 for 60 min, β-CD, TFP, MDC and monensin enhanced TGF-β1-stimulated Smad2 phosphorylation by ˜1.5-2.5 fold (FIGS. 1Ab, 1Bb, 1Cb, and 1Db). To further characterize the effects of these inhibitors on Smad2 phosphorylation, Mv1Lu cells were pretreated with vehicle only or with several concentrations of the inhibitors at 37° C. for 30 min and then stimulated with 100 pM of TGF-β1. After 30 min at 37° C., cell lysates were subjected to Western blot analysis using antibodies to P-Smad2 and Smad2 followed by quantitation with densitometry. […] To determine the effect of β-CD on TGF-β1-stimulated nuclear localization of P-Smad2, Mv1Lu cells were pretreated with vehicle only or with β-CD (10 mg/ml). After 1 h at 37° C., cells were stimulated with TGF-β1 ([…]) for 30 min. The nuclear localization of P-Smad2 was then analyzed by indirect fluorescent staining.
To define the coated-pit stages that are important in TGF-β1-induced signaling, we treated Mv1Lu cells with hyperosmotic sucrose (0.45 M) or β-CD and examined TGF-β1-stimulated Smad2 phosphorylation in these cells. […] In cells stimulated with 100 pM TGF-β1, hyperosmotic sucrose attenuated Smad2 phosphorylation by ˜60% (FIG. 1Kb). On the other hand, β-CD enhanced TGF-β1-stimulated Smad2 phosphorylation at all concentrations of TGF-β1. It enhanced TGF-β1-stimulated Smad2 phosphorylation by 2-4 fold when compared with the control (treatment without β-CD) (FIGS. 1Ka and 1Kb).

[2] = test system: nuclear localization of P-Smad2 in Mv1Lu cells; assay: Nuclear localization of P-Smad2, indirect immunofluorescent staining; conditions: β-CD 10 mg/ml 1 h, then TGF-β1 (10 pM) for 30 min
Method: (A-I, K) Cells were pretreated with 10 mg/ml β-CD (A, K), 20 LM MDC (B), 40 μM monensin (C), 20 μM TFP (D) and 0.45 M sucrose (K) or several concentrations (as indicated) of β-CD (E), TFP (F), monensin (G), chloroquine (H), dynasore (I), at 37° C. for 1 h. The cells were then stimulated with vehicle only or […] TGF-β1 (A to I) or several concentrations (as indicated) of TGF-β1 (K). After several time periods, as indicated, at 37° C., cell lysates were analysed by 7.5% SDS PAGE followed by Western blot analysis using antibodies to P-Smad2 and Smad2 and chemiluminescence development (a or top) and quantitation by densitometry (b or bottom). The relative level of P-Smad2 was expressed as arbitrary units (A.U.) (A, B, C, D, K) (b). […]
If TGF-β-induced signaling occurs in endosomes, as reported previously^6-15, inhibitors of clathrin-dependent endocytosis would be expected to attenuate TGF-β-stimulated signaling such as Smad2 phosphorylation and nuclear colocalization^4,5. […] After several time periods, the relative levels of P-Smad2 in treated and stimulated cells were analyzed by quantitative Western blot analysis using antibodies to P-Smad2 and Smad2. […] After 30 min at 37° C., cell lysates were subjected to Western blot analysis using antibodies to P-Smad2 and Smad2 followed by quantitation with densitometry. […]

[3] = test system: TβR-I and SARA at the plasma membrane in Mv1Lu cells; assay: Co-localization and accumulation of TβR-I and SARA, immunofluorescent microscopy; conditions: 20 μM TFP, 10 mg/ml β-CD, 40 μM dynasore, 200 μM chloroquine, with 100 pM TGF-β1, 30 min
Method: Cells were pretreated with vehicle only or 20 μM TFP, 10 mg/ml β-CD, 40 μM dynasore (Dyn) and 200 μM chloroquine (CQ) at 37° C. for 1 h. Treated cells were then stimulated with and without 100 pM TGF-β1. After 30 min at 37° C., cells were fixed and analyzed by indirect immunofluorescent staining using antibody to TβR-I (panels 1-10) and SARA (panels 11-20), DAPI (nuclear) staining was also performed (panels 21-30). Merged staining is also shown (panels 31-40). Insets indicate the co-localization and accumulation of SARA and TβR-I at the plasma membrane.
TGF-β stimulates Smad2 phosphorylation by inducing association of TβR-I and SARA^6,7 (which serves as an anchor for Smad2), binding of Smad2 to SARA, and subsequent phosphorylation of Smad2 by TβR-I in the TβR-1-SARA-Smad2 complex. If clathrin-dependent endocytosis inhibitors enhance TGF-β-induced signaling (TGF-β-stimulated Smad2 phosphorylation) by increasing accumulation of TβR-I/TβR-II complexes at the coated pits, they should promote co-localization and accumulation of TβR-I and SARA at the plasma membrane. To test this, Mv1Lu cells were stimulated with 100 pM TGF-β1. After 30 min at 37° C., […] analyzed by immunofluorescent microscopy using antibodies to TβR-I and SARA. […] This is consistent with the previous report that TGF-β enhances TGF-β receptor internalization^16.

CC[C@@]1([C@@H]2O[C@@H]([C@H]3O[C@@](O)(CO)[C@H](C)C[C@@H]3C)C[C@@H]2C)CC[C@H]([C@]2(C)CC[C@]3(C[C@H](O)[C@@H](C)[C@@H]([C@@H](C)[C@@H](OC)[C@H](C)C(=O)O)O3)O2)O1 [monensin]
time dependence of the effect on TGF-β1-stimulated Smad2 phosphorylation ([1]; 10 mg/ml β-CD): enhanced TGF-β1-stimulated Smad2 phosphorylation in a time-dependent manner
concentration dependence of the effect on TGF-β1-stimulated Smad2 phosphorylation [1]: enhanced TGF-β1-stimulated Smad2 phosphorylation in a concentration-dependent manner

OC[C@H]1O[C@@](CO)(O[C@H]2O[C@H](CO)[C@@H](O)[C@H](O)[C@H]2O)[C@@H](O)[C@@H]1O [hyperosmotic sucrose, sucrose]
attenuation of Smad2 phosphorylation ([1]; hyperosmotic sucrose 0.45 M, cells stimulated with 100 pM TGF-β1): ~60%
effect on TGF-β1-stimulated Smad2 phosphorylation ([1]; hyperosmotic sucrose 0.45 M, various concentrations of TGF-β1): inhibited TGF-β1-stimulated Smad2 phosphorylation

methyl-β-cyclodextrin [β-CD]
time dependence of the effect on TGF-β1-stimulated Smad2 phosphorylation ([1]; 10 mg/ml β-CD): enhanced TGF-β1-stimulated Smad2 phosphorylation in a time-dependent manner
enhancement of TGF-β1-stimulated Smad2 phosphorylation compared with the control (treatment without β-CD) ([1]; 10 mg/ml β-CD, all concentrations of TGF-β1): 2-4 fold
concentration dependence of the effect on TGF-β1-stimulated Smad2 phosphorylation [1]: enhanced TGF-β1-stimulated Smad2 phosphorylation in a concentration-dependent manner
nuclear localization of P-Smad2 [2]: β-CD and TGF-β1 together promoted nuclear localization of P-Smad2
co-localization and accumulation of TβR-I and SARA at the plasma membrane, co-treatment with TGF-β1 [3]: promoted co-localization and accumulation of TβR-I and SARA at the plasma membrane

CN(C)CCCN1c2ccccc2Sc2ccc(C(F)(F)F)cc21 [TFP, triflupromazine]
time dependence of the effect on TGF-β1-stimulated Smad2 phosphorylation ([1]; 10 mg/ml β-CD): enhanced TGF-β1-stimulated Smad2 phosphorylation in a time-dependent manner
concentration dependence of the effect on TGF-β1-stimulated Smad2 phosphorylation [1]: enhanced TGF-β1-stimulated Smad2 phosphorylation in a concentration-dependent manner
co-localization and accumulation of TβR-I and SARA at the plasma membrane, co-treatment with TGF-β1 [3]: promoted co-localization and accumulation of TβR-I and SARA at the plasma membrane

CCN(CC)CCCC(C)Nc1ccnc2cc(Cl)ccc12 (stereo not drawn) [chloroquine]
concentration dependence of the effect on TGF-β1-stimulated Smad2 phosphorylation [1]: enhanced TGF-β1-stimulated Smad2 phosphorylation in a concentration-dependent manner
co-localization and accumulation of TβR-I and SARA at the plasma membrane, co-treatment with TGF-β1 [3]: promoted co-localization and accumulation of TβR-I and SARA at the plasma membrane

CN(C)c1cccc2c(S(=O)(=O)NCCCCCN)cccc12 [MDC, monodansylcadaverine]
time dependence of the effect on TGF-β1-stimulated Smad2 phosphorylation ([1]; 10 mg/ml β-CD): enhanced TGF-β1-stimulated Smad2 phosphorylation in a time-dependent manner
